Experimental data as given in ChEMBL document CHEMBL1201862, “PubChem BioAssay data set” (2004).
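Cells were grown in 96-well plates and exposed to each compound for 48 hours at five concentrations; endpoints were interpolated linearly between bracketing concentrations, or set to the highest concentration if not reached. The concentration for 50% growth inhibition is given as GI50.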 The source made the active and inactive calls. Cut-off read from the data, not from the text of the source: active = GI50 up to about 1.1 µM and inactive = higher.

Columns and labels:
Assay in all cases: NCI-60 cell line screen, 48 h
SNB-19 = system: SNB-19
HT-29 = system: HT-29
PC-3 = system: PC-3
RXF 393 = system: RXF 393
BT-549 = system: BT-549
NCI/ADR-RES = system: NCI/ADR-RES
SNB-75 = system: SNB-75
UACC-257 = system: UACC-257
A498 = system: A498
SW-620 = system: SW-620
Malme-3M = system: Malme-3M
OVCAR-8 = system: OVCAR-8
NCI-H460 = system: NCI-H460
OVCAR-4 = system: OVCAR-4
A549 = system: A549
HCT-116 = system: HCT-116
HOP-62 = system: HOP-62
IGROV-1 = system: IGROV-1
K562 = system: K562
TK-10 = system: TK-10

Measured: GI50

CN(C)C(=S)NC(=S)Nc1ccc2ccccc2c1
inactive: SNB-19 12.3 µM | HT-29 12 µM | PC-3 6.1 µM | RXF 393 18.4 µM | BT-549 16 µM | NCI/ADR-RES 13.8 µM | SNB-75 24.3 µM | UACC-257 8.95 µM | A498 12.6 µM | SW-620 9.89 µM | Malme-3M 13.8 µM | OVCAR-8 9.64 µM | NCI-H460 3.94 µM | OVCAR-4 24.7 µM | A549 6.73 µM | HCT-116 6.65 µM | HOP-62 18.4 µM | IGROV-1 14.4 µM | K562 2.65 µM | TK-10 22.7 µM

O=C(O)c1nnsc1COCc1ccccc1
inactive: SNB-19 > 100 µM | HT-29 > 100 µM | PC-3 > 100 µM | RXF 393 > 100 µM | BT-549 > 100 µM | NCI/ADR-RES > 100 µM | SNB-75 > 100 µM | UACC-257 > 100 µM | A498 > 100 µM | SW-620 > 100 µM | Malme-3M > 100 µM | OVCAR-8 > 100 µM | NCI-H460 > 100 µM | OVCAR-4 > 100 µM | A549 > 100 µM | HCT-116 > 100 µM | HOP-62 > 100 µM | IGROV-1 > 100 µM | K562 > 100 µM | TK-10 > 100 µM

Cc1ccc(/N=C2N=C(Cl)/C(=C\c3ccco3)N\2)cc1
inactive: SNB-19 > 100 µM | HT-29 > 100 µM | PC-3 > 100 µM | RXF 393 > 100 µM | BT-549 > 100 µM | NCI/ADR-RES > 100 µM | SNB-75 > 100 µM | UACC-257 > 100 µM | A498 > 100 µM | SW-620 > 100 µM | Malme-3M > 100 µM | OVCAR-8 > 100 µM | NCI-H460 > 100 µM | OVCAR-4 > 100 µM | A549 > 100 µM | HCT-116 > 100 µM | HOP-62 > 100 µM | IGROV-1 > 100 µM | K562 > 100 µM | TK-10 > 100 µM

CC1(C)N[PH]2(Nc3ccccc3O2)OC1=O
inactive: SNB-19 > 100 µM | HT-29 > 100 µM | PC-3 41.1 µM | RXF 393 > 100 µM | BT-549 18.6 µM | NCI/ADR-RES 49.9 µM | SNB-75 > 100 µM | UACC-257 > 100 µM | A498 > 100 µM | SW-620 42.7 µM | Malme-3M 38.4 µM | OVCAR-8 82.8 µM | NCI-H460 45.4 µM | OVCAR-4 > 100 µM | A549 32.7 µM | HCT-116 > 100 µM | HOP-62 > 100 µM | IGROV-1 > 100 µM | K562 37.9 µM | TK-10 68.2 µM

CCOC(=O)/C=C(/C(=O)OCC)n1ccc(=O)n(Cc2cnnn2COCCOC(C)=O)c1=O
inactive: SNB-19 > 31.6 µM | HT-29 17.5 µM | PC-3 17.5 µM | RXF 393 15.4 µM | BT-549 19.5 µM | NCI/ADR-RES 21.9 µM | SNB-75 41.2 µM | UACC-257 16.8 µM | A498 24 µM | SW-620 3.98 µM | Malme-3M 12.5 µM | OVCAR-8 16.6 µM | NCI-H460 > 43 µM | OVCAR-4 20 µM | A549 41.1 µM | HCT-116 18.9 µM | HOP-62 > 73.1 µM | IGROV-1 17.9 µM | K562 4.05 µM | TK-10 7.26 µM

OC1(C(F)(F)F)OCCN=C1C(F)(F)F (stereo not given)
inactive: SNB-19 > 100 µM | HT-29 > 100 µM | PC-3 > 100 µM | RXF 393 > 100 µM | BT-549 56.2 µM | NCI/ADR-RES 88.3 µM | SNB-75 > 100 µM | UACC-257 > 100 µM | A498 > 100 µM | SW-620 56.2 µM | Malme-3M 24.8 µM | OVCAR-8 53.5 µM | NCI-H460 > 100 µM | OVCAR-4 > 100 µM | A549 > 100 µM | HCT-116 51.5 µM | HOP-62 > 100 µM | IGROV-1 99.3 µM | K562 > 100 µM | TK-10 > 100 µM

COC(=O)C(=O)C(C(=O)C(=O)Nc1ccccc1OC)c1nc2ccc([N+](=O)[O-])cc2nc1O (stereo not given)
inactive: SNB-19 23.2 µM | HT-29 > 100 µM | PC-3 > 100 µM | RXF 393 > 100 µM | BT-549 > 100 µM | NCI/ADR-RES > 100 µM | SNB-75 > 100 µM | UACC-257 > 100 µM | A498 > 100 µM | SW-620 > 100 µM | Malme-3M 83 µM | OVCAR-8 > 100 µM | NCI-H460 58.2 µM | OVCAR-4 83.8 µM | A549 > 100 µM | HCT-116 > 100 µM | HOP-62 > 100 µM | IGROV-1 54.8 µM | K562 > 100 µM | TK-10 > 100 µM

CC(=O)OCc1ccc2oc(=O)c(C(=O)Oc3ccccc3)cc2c1
inactive: SNB-19 > 100 µM | HT-29 30.1 µM | PC-3 16.2 µM | RXF 393 44.6 µM | BT-549 > 100 µM | NCI/ADR-RES > 100 µM | SNB-75 > 100 µM | UACC-257 > 100 µM | A498 > 100 µM | SW-620 32.9 µM | Malme-3M > 100 µM | OVCAR-8 > 100 µM | NCI-H460 67.1 µM | OVCAR-4 > 100 µM | A549 > 100 µM | HCT-116 15.6 µM | HOP-62 > 100 µM | IGROV-1 > 100 µM | K562 3.72 µM | TK-10 23.8 µM

NC1CC(=O)c2csc(Br)c21 (stereo not given)
inactive: SNB-19 23.3 µM | HT-29 19.6 µM | PC-3 14 µM | RXF 393 17.2 µM | BT-549 11.8 µM | NCI/ADR-RES 20.1 µM | SNB-75 23.1 µM | UACC-257 17.3 µM | A498 > 36.5 µM | SW-620 4.84 µM | Malme-3M 17.2 µM | OVCAR-8 16.6 µM | NCI-H460 20.3 µM | OVCAR-4 16.5 µM | A549 36.7 µM | HCT-116 11.2 µM | HOP-62 24.4 µM | IGROV-1 7.76 µM | K562 5.97 µM | TK-10 12.9 µM

O=C(O)/C=C(/CC(=O)O)C(=O)O
inactive: SNB-19 22.2 µM | HT-29 21.8 µM | PC-3 19.6 µM | RXF 393 16 µM | BT-549 21.1 µM | NCI/ADR-RES 21 µM | SNB-75 14.1 µM | UACC-257 33.1 µM | A498 16.3 µM | SW-620 19 µM | Malme-3M 18.7 µM | OVCAR-8 21.6 µM | NCI-H460 35.2 µM | OVCAR-4 25.8 µM | A549 18.6 µM | HCT-116 18.2 µM | HOP-62 16.7 µM | IGROV-1 20.9 µM | K562 19.2 µM | TK-10 23.2 µM
